Measured values published in patent publication US20150273069A1, “FATTY ACID ACYLATED AMINO ACIDS FOR ORAL PEPTIDE DELIVERY” (NOVO NORDISK A/S, priority 2012, published 2015).

Experiments:
[1] = Transport of semaglutide across Caco-2 cell monolayers in the presence of fatty acid acylated amino acids; type: in vitro ADME; conditions: human, Caco-2; permeation of semaglutide (100 μM), apical to basolateral, permeation enhancer: None, pH 7.4
Experimental: (§1) Caco-2 cells were obtained from the American Type Culture Collection (Manassas, Va.). Cells were seeded in culturing flasks and passaged in Dulbecco's Modified Eagle′ medium supplemented with 10% fetal bovine serum, 1% penicillin/streptomycin (100 U/ml and 100 μg/ml, respectively), 1% L-glutamine and 1% nonessential amino acids. Caco-2 cells were seeded onto tissue culture treated polycarbonate filters in 12-well Transwell® plates (1.13 cm2, 0.4 μm pore size) at a density of 10^5 cells/well. Monolayers were grown in an atmosphere of 5% CO2-95% O2 at 37° C. Growth media were replaced every other day. The experiment was performed on day 10-14 after seeding of Caco-2 cells.
(§2) The amount of compound transported from the donor chamber (apical side) to the receiver chamber (basolateral side) was measured. The transport study was initiated by adding 400 μl solution (100 μM of semaglutide+0.5 mM fatty acid acylated amino acids) and 0.4 μCi/μl [3H]manntiol in transport buffer to the donor chamber and 1000 μl transport buffer to the receiver chamber. The transport buffer consisted of Hank's balanced saline solution containing 10 mM HEPES, […] to pH 7.4 after addition of compounds. The transport of [^3H]mannitol, a marker for paracellular transport, was measured to verify the integrity of the epithelium.
(§3) Before the experiment, the Caco-2 cells were equilibrated for 60 min with transport buffer on both sides of the epithelium. Buffer was then removed and the experiment initiated. Donor samples (20 μl) were taken at 0 min and at the end of the experiment. Receiver samples (200 μl) were taken every 15 min. The study was performed in an atmosphere of 5% CO2-95% O2 at 37° C. on a shaking plate (30 rpm).
(§4) In all samples with semaglutide and mannitol, the concentration was determined using a LOCI assay and scintillation counter, respectively.
(§5) Before and during the experiment the transepithelial electrical resistance (TEER) of the cell monolayers was monitored. In selected experiments, the transport buffer were changed to culturing medium after end of experiment and the TEER measured 24 h after experiment. The TEER was measured with EVOM™ Epithelial Voltohmmeter connected to Chopsticks.

[2] = tested on: Caco-2 cell monolayers; assay: as above; type: in vitro ADME; conditions: for Papp: permeation of semaglutide (100 μM), apical to basolateral, with 0.5 mM fatty acid acylated amino acid, pH 7.4; for permeation enhancing effect: on semaglutide across Caco-2 monolayers, compared among the fatty acid acylated amino acids tested
Experimental: as §1, §2, §3, §4, §5

Compound | Papp A→B at 100 μM [1] | Papp [2] | permeation enhancing effect [2]
CC[C@H](C)[C@H](NC(=O)[C@H](Cc1ccccc1)NC(=O)[C@H](CCC(=O)O)NC(=O)[C@H](CCCCNC(=O)COCCOCCNC(=O)COCCOCCNC(=O)CC[C@H](NC(=O)CCCCCCCCCCCCCCCCC(=O)O)C(=O)O)NC(=O)[C@H](C)NC(=O)[C@H](C)NC(=O)[C@H](CCC(N)=O)NC(=O)CNC(=O)[C@H](CCC(=O)O)NC(=O)[C@H](CC(C)C)NC(=O)[C@H](Cc1ccc(O)cc1)NC(=O)[C@H](CO)NC(=O)[C@H](CO)NC(=O)[C@@H](NC(=O)[C@H](CC(=O)O)NC(=O)[C@H](CO)NC(=O)[C@@H](NC(=O)[C@H](Cc1ccccc1)NC(=O)[C@@H](NC(=O)CNC(=O)[C@H](CCC(=O)O)NC(=O)C(C)(C)NC(=O)[C@@H](N)Cc1cnc[nH]1)[C@@H](C)O)[C@@H](C)O)C(C)C)C(=O)N[C@@H](C)C(=O)N[C@@H](Cc1c[nH]c2ccccc12)C(=O)N[C@@H](CC(C)C)C(=O)N[C@H](C(=O)N[C@@H](CCCNC(=N)N)C(=O)NCC(=O)N[C@@H](CCCNC(=N)N)C(=O)NCC(=O)O)C(C)C [semaglutide, N-epsilon26-[2-(2-{2-[2-(2-{2-[(S)-4-carboxy-4-(17-carboxyheptadecanoylamino)butyrylamino]ethoxy}ethoxy)acetylamino]ethoxy}ethoxy)acetyl][Aib8,Arg34]GLP-1(7-37), reference compound] | 0.065 nm/s |  | 
CCCCCCCCCCCC(=O)N[C@@H](CC(C)C)C(=O)[O-].[Na+] [Sodium N-dodecanoyl L-leucinate] |  | 2.53 10^−8 cm/s | 
CCCCCCCCCCCCCC(=O)N[C@@H](CC(C)C)C(=O)[O-].[Na+] [Sodium N-myristoyl L-leucinate] |  | 63.88 10^−8 cm/s | greatest effect
CCCCCCCCCC(=O)N[C@@H](CC(C)C)C(=O)[O-].[Na+] [Sodium N-decanoyl L-leucinate] |  | 2.12 10^−8 cm/s | 
CCCCCCCCCCCC(=O)N[C@@H](Cc1ccccc1)C(=O)[O-].[Na+] [Sodium N-dodecanoyl L-phenylalaninate] |  | 5.60 10^−8 cm/s | 
CCCCCCCCCC(=O)N[C@@H](CC(N)=O)C(=O)[O-].[Na+] [Sodium N-decanoyl L-asparaginate] |  | 0.31 10^−8 cm/s | 
CCCCCCCCCCCCCC(=O)N[C@H](C(=O)[O-])C(C)C.[Na+] [Sodium N-myristoyl L-valinate] |  | 78.83 10^−8 cm/s | greatest effect
